Measured values from ChEMBL document CHEMBL1128145, “N-(carbobenzyloxy)isatin: A slow binding -keto lactam inhibitor of -chymotrypsin” (Bioorg Med Chem Lett, 1995).

Key:
[1] = target: T1, Chymotrypsinogen B (Homo sapiens, UniProt P17538); assay: Inhibition constant against Alpha-chymotrypsin inhibitor was determined
[2] = target: T1, Chymotrypsinogen B
Description: Rate constant against Alpha-chymotrypsin from time dependent inhibition and reactivation data

[3] = target: T1, Chymotrypsinogen B; remark: listed apart in the source
Description: (§1) Rate constant against alpha-chymotrypsin

[4] = target: T1, Chymotrypsinogen B; remark: listed apart in the source
Description: as §1

[5] = target: T1, Chymotrypsinogen B; assay: Inhibition constant against alpha-chymotrypsin
[6] = target: T1, Chymotrypsinogen B; remark: listed apart in the source
Description: Rate constant against alpha-chymotrypsin from time dependent inhibition and reactivation data

T1 sequence (P17538 34-164 limits assumed, other chains not shown): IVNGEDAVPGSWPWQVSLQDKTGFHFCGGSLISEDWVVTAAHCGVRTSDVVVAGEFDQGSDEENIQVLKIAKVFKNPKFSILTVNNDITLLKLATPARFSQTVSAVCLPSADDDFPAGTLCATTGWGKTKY
T1 sequence (P17538 167-263 limits assumed, other chains not shown): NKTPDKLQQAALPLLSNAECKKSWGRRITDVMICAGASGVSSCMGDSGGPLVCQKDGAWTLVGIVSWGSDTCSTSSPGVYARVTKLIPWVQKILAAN

With `CC(C)(C)OC(=O)N1C(=O)C(=O)c2ccccc21` the Ki [1] was > 2000 µM.

In the case of `O=C1C(=O)N(C(=O)OCc2ccccc2)c2ccccc21`, the k on [2] is reported as 7.63 M⁻¹ s⁻¹, the k off [3] is reported as 0.00095 s⁻¹ and the k on [4] is reported as 254 M⁻¹ s⁻¹. For the same compound, the Ki [5] was 3.8 µM and the k off [6] was 4.01e-05 s⁻¹.
